Experimental data reported in ChEMBL document CHEMBL4052645, “Discovery of potent and efficacious pyrrolopyridazines as dual JAK1/3 inhibitors” (Bioorg Med Chem Lett, 2017).

Tests used:
[1] = biological target: Serine/threonine-protein kinase 32C (Homo sapiens) (UniProt Q86UX6); assay: Inhibition of wild-type human partial length YANK3 (M68 to G486 residues) expressed in bacterial expression system assessed as residual activity at 50 nM by Kinomescan method relative to control
[2] = biological target: Homeodomain-interacting protein kinase 4 (Homo sapiens) (UniProt Q8NE63); assay: Inhibition of wild-type human partial length HIPK4 (M1 to V384 residues) expressed in bacterial expression system assessed as residual activity at 50 nM by Kinomescan method relative to control
[3] = biological target: Mitogen-activated protein kinase 4 (Homo sapiens) (UniProt P31152); assay: Inhibition of wild-type human partial length ERK4 (M1 to L365 residues) expressed in bacterial expression system assessed as residual activity at 50 nM by Kinomescan method relative to control
[4] = biological target: Tyrosine-protein kinase ABL1 (Homo sapiens) (UniProt P00519); assay: Inhibition of wild-type human non-phosphorylated ABL1 (S229 to K512 residues) expressed in mammalian expression system assessed as residual activity at 50 nM by Kinomescan method relative to control
[5] = biological target: Cyclin-dependent kinase 13 (Homo sapiens) (UniProt Q14004); assay: Inhibition of wild-type human partial length CDC2L5 (H675 to S1054 residues) expressed in mammalian expression system assessed as residual activity at 50 nM by Kinomescan method relative to control
[6] = biological target: Serine/threonine-protein kinase OSR1 (Homo sapiens) (UniProt O95747); assay: Inhibition of wild-type human full length OSR1 (M1 to S527 residues) expressed in mammalian expression system assessed as residual activity at 50 nM by Kinomescan method relative to control
Sequence of Serine/threonine-protein kinase OSR1 (Homo sapiens) (O95747 2-527 limits assumed): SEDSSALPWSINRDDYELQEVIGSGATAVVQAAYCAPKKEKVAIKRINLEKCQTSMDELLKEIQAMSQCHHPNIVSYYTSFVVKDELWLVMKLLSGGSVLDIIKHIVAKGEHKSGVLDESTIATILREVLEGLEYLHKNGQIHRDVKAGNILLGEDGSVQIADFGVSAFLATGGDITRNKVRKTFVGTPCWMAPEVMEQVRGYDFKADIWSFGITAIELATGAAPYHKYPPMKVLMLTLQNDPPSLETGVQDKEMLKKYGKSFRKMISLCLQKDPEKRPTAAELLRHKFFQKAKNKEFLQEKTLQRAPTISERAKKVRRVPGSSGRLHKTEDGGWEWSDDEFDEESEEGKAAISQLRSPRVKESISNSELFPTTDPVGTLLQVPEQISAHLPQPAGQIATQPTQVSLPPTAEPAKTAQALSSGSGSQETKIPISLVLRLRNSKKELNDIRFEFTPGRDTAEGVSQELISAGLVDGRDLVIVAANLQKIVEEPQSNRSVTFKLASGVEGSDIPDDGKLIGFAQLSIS

[7] = biological target: MAP/microtubule affinity-regulating kinase 3 (Homo sapiens) (UniProt P27448); assay: Inhibition of wild-type human full length MARK3 (M1 to L729 residues) expressed in bacterial expression system assessed as residual activity at 50 nM by Kinomescan method relative to control
Sequence of MAP/microtubule affinity-regulating kinase 3 (Homo sapiens) (P27448 whole entry, looked up, the tested form may be a part): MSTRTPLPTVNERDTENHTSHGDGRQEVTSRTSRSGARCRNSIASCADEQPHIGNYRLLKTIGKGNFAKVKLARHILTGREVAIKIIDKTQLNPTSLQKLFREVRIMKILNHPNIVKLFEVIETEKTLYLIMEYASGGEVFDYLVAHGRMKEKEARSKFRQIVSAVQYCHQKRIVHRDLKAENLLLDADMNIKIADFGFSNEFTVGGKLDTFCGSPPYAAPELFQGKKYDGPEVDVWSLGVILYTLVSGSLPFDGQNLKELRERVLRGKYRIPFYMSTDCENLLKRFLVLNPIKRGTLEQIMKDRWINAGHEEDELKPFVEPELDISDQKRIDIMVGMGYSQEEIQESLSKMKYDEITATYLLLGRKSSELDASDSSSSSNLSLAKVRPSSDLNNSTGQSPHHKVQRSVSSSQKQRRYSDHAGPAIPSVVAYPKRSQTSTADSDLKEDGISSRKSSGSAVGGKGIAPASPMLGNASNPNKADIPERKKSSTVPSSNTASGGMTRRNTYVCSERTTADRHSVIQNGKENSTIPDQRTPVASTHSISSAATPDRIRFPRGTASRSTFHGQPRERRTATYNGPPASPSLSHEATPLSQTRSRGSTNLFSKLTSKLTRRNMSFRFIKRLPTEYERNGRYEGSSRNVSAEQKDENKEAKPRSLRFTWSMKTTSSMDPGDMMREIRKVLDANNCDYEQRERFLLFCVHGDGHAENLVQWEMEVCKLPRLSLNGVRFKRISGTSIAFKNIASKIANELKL

[8] = biological target: Dual specificity protein kinase CLK3 (Homo sapiens) (UniProt P49761); assay: Inhibition of wild-type human full length CLK3 (M1 to R490 residues) expressed in bacterial expression system assessed as residual activity at 50 nM by Kinomescan method relative to control
[9] = biological target: Ephrin type-B receptor 3 (Homo sapiens) (UniProt P54753); assay: Inhibition of wild-type human partial length EPHB3 (Q599 to T928 residues) expressed in bacterial expression system assessed as residual activity at 50 nM by Kinomescan method relative to control
[10] = biological target: Activin receptor type-1B (Homo sapiens) (UniProt P36896); assay: Inhibition of wild-type human ALK4 (S187 to I505 residues) expressed in bacterial expression system assessed as residual activity at 50 nM by Kinomescan method relative to control
[11] = biological target: Dual specificity mitogen-activated protein kinase kinase 6 (Homo sapiens) (UniProt P52564); assay: Inhibition of wild-type human partial length MAP2K6 (K36 to D334 residues) expressed in bacterial expression system assessed as residual activity at 50 nM by Kinomescan method relative to control
Sequence of Dual specificity mitogen-activated protein kinase kinase 6 (Homo sapiens) (P52564 whole entry, the tested form may be a part): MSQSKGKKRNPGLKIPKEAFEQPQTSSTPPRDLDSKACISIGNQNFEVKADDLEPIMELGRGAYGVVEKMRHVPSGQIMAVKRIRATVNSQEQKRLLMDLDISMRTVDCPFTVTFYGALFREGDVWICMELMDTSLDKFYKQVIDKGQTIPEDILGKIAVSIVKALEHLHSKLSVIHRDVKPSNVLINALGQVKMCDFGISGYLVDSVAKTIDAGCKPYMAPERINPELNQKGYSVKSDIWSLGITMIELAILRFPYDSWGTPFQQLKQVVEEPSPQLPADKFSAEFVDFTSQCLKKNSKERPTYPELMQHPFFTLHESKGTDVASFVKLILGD

[12] = biological target: Activin receptor type-1-like (Homo sapiens) (UniProt P37023); assay: Inhibition of wild-type human ALK1 (L164 to Q503 residues) expressed in bacterial expression system assessed as residual activity at 50 nM by Kinomescan method relative to control
[13] = biological target: Fibroblast growth factor receptor 4 (Homo sapiens) (UniProt P22455); assay: Inhibition of wild-type human partial length FGFR4 (G402 to E713 residues) expressed in bacterial expression system assessed as residual activity at 50 nM by Kinomescan method relative to control
[14] = biological target: Activated CDC42 kinase 1 (Homo sapiens) (UniProt Q07912); assay: Inhibition of wild-type human partial length ACK (S159 to D474 residues) expressed in bacterial expression system assessed as residual activity at 50 nM by Kinomescan method relative to control
Sequence of Activated CDC42 kinase 1 (Homo sapiens) (Q07912 whole entry, looked up, the tested form may be a part): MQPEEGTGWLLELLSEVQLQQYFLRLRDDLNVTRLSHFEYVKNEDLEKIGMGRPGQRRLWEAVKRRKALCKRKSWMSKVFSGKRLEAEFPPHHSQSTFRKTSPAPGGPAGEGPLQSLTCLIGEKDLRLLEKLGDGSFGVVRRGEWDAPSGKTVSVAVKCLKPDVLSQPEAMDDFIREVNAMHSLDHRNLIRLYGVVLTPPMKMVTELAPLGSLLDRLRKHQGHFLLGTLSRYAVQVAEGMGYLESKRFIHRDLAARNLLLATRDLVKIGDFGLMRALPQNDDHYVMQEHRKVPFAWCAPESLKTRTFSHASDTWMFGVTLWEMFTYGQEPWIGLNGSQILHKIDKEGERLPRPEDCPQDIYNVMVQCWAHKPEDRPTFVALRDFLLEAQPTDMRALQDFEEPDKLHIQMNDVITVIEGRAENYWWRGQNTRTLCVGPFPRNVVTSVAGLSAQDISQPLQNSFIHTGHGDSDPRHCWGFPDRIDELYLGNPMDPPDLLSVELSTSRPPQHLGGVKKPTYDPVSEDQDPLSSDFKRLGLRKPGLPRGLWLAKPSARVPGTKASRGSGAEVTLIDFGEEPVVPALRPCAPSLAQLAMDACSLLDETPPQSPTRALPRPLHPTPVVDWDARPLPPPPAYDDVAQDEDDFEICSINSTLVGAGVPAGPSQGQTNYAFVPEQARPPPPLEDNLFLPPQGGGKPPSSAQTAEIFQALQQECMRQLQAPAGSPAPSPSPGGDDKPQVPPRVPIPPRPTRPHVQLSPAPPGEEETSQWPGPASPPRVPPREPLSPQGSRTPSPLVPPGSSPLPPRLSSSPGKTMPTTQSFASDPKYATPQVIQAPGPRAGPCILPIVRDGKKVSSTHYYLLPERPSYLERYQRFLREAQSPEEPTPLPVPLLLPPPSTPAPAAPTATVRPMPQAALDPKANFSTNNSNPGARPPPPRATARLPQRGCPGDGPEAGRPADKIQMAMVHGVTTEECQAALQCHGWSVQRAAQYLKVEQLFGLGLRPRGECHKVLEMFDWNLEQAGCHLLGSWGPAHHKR

[15] = biological target: BDNF/NT-3 growth factors receptor (Homo sapiens) (UniProt Q16620); assay: Inhibition of wild-type human partial length TRKB (Q547 to G838 residues) expressed in mammalian expression system assessed as residual activity at 50 nM by Kinomescan method relative to control
[16] = biological target: Serine/threonine-protein kinase 38-like (Homo sapiens) (UniProt Q9Y2H1); assay: Inhibition of wild-type human partial length NDR2 (N34 to E447 residues) expressed in bacterial expression system assessed as residual activity at 50 nM by Kinomescan method relative to control
[17] = biological target: Bone morphogenetic protein receptor type-1A (Homo sapiens) (UniProt P36894); assay: Inhibition of wild-type human partial length BMPR1A (Q214 to I532 residues) expressed in bacterial expression system assessed as residual activity at 50 nM by Kinomescan method relative to control
Sequence of Bone morphogenetic protein receptor type-1A (Homo sapiens) (P36894 whole entry, the tested form may be a part): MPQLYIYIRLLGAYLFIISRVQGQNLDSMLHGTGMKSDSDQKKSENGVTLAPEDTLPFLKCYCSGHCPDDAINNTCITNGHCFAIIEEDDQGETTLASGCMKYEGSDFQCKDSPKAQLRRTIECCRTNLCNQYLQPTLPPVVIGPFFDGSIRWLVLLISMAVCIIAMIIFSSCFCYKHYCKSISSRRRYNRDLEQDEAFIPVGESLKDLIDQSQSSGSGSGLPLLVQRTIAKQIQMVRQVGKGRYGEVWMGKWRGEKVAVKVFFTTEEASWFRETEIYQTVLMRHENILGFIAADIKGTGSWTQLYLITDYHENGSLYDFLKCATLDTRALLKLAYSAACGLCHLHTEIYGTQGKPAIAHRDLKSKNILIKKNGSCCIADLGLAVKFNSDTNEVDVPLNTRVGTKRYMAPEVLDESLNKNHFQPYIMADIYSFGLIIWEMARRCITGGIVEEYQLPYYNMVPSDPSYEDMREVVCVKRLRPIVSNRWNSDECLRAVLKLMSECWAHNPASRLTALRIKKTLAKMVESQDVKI

[18] = biological target: Ribosomal protein S6 kinase alpha-4 (Homo sapiens) (UniProt O75676); assay: Inhibition of wild-type human partial length C-terminal MSK2 kinase domain 2 (M375 to T705 residues) expressed in mammalian expression system assessed as residual activity at 50 nM by Kinomescan method relative to control
[19] = biological target: Cyclin-dependent kinase 17 (Homo sapiens) (UniProt Q00537); assay: Inhibition of recombinant human full length PCTAIRE2 (M1 to F523 residues) assessed as residual activity at 50 nM by Kinomescan method relative to control
[20] = biological target: Cyclin-dependent kinase 4/cyclin D1 (Homo sapiens) (UniProt P11802+P24385); assay: Inhibition of wild-type human full length CDK4/cyclinD1 (M1 to E303 residues) expressed in mammalian expression system assessed as residual activity at 50 nM by Kinomescan method relative to control
[21] = biological target: Tyrosine-protein kinase Lck (Homo sapiens) (UniProt P06239); assay: Inhibition of wild-type human partial length LCK (R207 to P509 residues) expressed in bacterial expression system assessed as residual activity at 50 nM by Kinomescan method relative to control
[22] = biological target: Proto-oncogene tyrosine-protein kinase Src (Homo sapiens) (UniProt P12931); assay: Inhibition of wild-type human partial length SRC (L240 to L536 residues) expressed in bacterial expression system assessed as residual activity at 50 nM by Kinomescan method relative to control
[23] = biological target: Ribosomal protein S6 kinase alpha-1 (Homo sapiens) (UniProt Q15418); assay: Inhibition of wild-type human partial length N-terminal RSK1 Kinase domain 1 (M1 to E388 residues) expressed in bacterial expression system assessed as residual activity at 50 nM by Kinomescan method relative to control
[24] = biological target: Casein kinase I isoform gamma-1 (Homo sapiens) (UniProt Q9HCP0); assay: Inhibition of wild-type human partial length CK1G1 (T15 to S353 residues) expressed in bacterial expression system assessed as residual activity at 50 nM by Kinomescan method relative to control
Sequence of Casein kinase I isoform gamma-1 (Homo sapiens) (Q9HCP0 whole entry, looked up, the tested form may be a part, canonical isoform): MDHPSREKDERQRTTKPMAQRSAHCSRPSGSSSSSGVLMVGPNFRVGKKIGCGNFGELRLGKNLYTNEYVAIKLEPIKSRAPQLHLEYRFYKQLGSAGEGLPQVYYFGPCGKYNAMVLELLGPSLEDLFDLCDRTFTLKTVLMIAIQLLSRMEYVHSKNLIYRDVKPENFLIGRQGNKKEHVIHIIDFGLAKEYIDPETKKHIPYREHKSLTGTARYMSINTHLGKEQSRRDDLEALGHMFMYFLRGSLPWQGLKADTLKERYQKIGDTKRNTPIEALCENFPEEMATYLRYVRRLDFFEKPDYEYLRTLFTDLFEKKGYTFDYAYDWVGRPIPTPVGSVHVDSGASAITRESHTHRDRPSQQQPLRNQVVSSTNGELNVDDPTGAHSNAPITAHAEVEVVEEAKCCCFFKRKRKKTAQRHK

[25] = biological target: Receptor-interacting serine/threonine-protein kinase 2 (Homo sapiens) (UniProt O43353); assay: Inhibition of wild-type human partial length RIPK2 (M1 to K310 residues) expressed in bacterial expression system assessed as residual activity at 50 nM by Kinomescan method relative to control
Sequence of Receptor-interacting serine/threonine-protein kinase 2 (Homo sapiens) (O43353 whole entry, the tested form may be a part): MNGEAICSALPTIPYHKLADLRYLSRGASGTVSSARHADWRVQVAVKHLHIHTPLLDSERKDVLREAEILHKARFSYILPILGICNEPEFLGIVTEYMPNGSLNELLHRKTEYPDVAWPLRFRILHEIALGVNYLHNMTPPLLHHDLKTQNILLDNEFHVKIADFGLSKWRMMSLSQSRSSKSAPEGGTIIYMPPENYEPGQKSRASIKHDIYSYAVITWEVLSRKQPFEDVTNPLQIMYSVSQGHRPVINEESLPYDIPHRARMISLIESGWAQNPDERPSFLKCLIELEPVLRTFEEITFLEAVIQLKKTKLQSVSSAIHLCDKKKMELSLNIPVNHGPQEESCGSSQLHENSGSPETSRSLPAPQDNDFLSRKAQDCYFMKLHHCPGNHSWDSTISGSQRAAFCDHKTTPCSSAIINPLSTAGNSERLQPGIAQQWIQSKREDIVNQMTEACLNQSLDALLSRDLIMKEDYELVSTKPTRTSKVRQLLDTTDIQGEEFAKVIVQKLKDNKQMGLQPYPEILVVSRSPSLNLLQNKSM

Sequence of Serine/threonine-protein kinase 32C (Homo sapiens) (Q86UX6 whole entry, the tested form may be a part): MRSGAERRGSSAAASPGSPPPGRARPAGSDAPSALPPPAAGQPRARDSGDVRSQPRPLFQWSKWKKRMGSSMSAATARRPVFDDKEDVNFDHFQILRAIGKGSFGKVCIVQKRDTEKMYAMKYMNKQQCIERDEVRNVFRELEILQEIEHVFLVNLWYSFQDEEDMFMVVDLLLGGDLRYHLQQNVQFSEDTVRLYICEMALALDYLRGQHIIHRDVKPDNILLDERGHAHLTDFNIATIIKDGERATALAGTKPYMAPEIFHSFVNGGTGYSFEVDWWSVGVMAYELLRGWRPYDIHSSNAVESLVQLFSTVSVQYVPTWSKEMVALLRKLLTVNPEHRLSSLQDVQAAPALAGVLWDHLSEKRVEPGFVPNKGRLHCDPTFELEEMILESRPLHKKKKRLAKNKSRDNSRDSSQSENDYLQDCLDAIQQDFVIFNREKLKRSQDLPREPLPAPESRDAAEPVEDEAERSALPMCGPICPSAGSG

Structure (SMILES) | Activity [1] | Activity [2] | Activity [3] | Activity [4] | Activity [5] | Activity [6] | Activity [7] | Activity [8] | Activity [9] | Activity [10] | Activity [11] | Activity [12] | Activity [13] | Activity [14] | Activity [15] | Activity [16] | Activity [17] | Activity [18] | Activity [19] | Activity [20] | other results
CC1(C)[C@H](Nc2c(C(N)=O)cnn3cc(-c4ccccc4)cc23)CC[C@]1(C)N | 100% | 100% | 100% | 100% | 72% | 100% | 68% | 100% | 100% | 82% | 100% | 100% | 88% | 73% | 80% | 100% | 100% | 98% | 95% | 100% | Activity [21]: 87%; Activity [22]: 75%; Activity [23]: 67%; Activity [24]: 92%; Activity [25]: 93%
COc1ccc(-c2cc3c(N[C@@H]4CC[C@](C)(N)C4(C)C)c(C(N)=O)cnn3c2)cn1 | 100% | 80% | 100% | 90% | 100% | 100% | 100% | 96% | 100% | 66% | 78% | 100% | 91% | 100% | 100% | 100% | 100% | 100% | 100% | 97% | Activity [21]: 100%; Activity [22]: 97%; Activity [23]: 100%; Activity [24]: 100%; Activity [25]: 100%
